# Test results from publication PMC12108080, “Sodium butyrate inhibits the expression of virulence factors in Vibrio cholerae by targeting ToxT protein” (mSphere, 2025).
# What was measured:
# ToxT [1] = biological target: T1, ToxT (Vibrio cholerae, UniProt P0C6D6); experiment: intrinsic tryptophan fluorescence quenching, logarithmic plot; type: binding
# T1 construct: gene tcpN; 6xHis fusion from pHIS-Tev plasmid, expressed in E. coli BL21(DE3), Ni-agarose purified
# ToxT [2] = biological target: T1, ToxT; type: binding; conditions: 1.0 µM ToxT pre-incubated with TB (40 mM) 20 min, 1 nM PtcpA DNA, pH 7.5
# [3] = biological target: T2, ToxT (His6/NBP-ToxT fusion) (Vibrio cholerae N16961?) (UniProt P0C6D6); experiment: competition; conditions: 10 mM Tris-HCl pH 7.5, 100 mM KCl, 1 mM EDTA, 1 mM DTT, 200 µg/mL BSA, 10% glycerol, […] (temperature not stated)
# T2 sequence: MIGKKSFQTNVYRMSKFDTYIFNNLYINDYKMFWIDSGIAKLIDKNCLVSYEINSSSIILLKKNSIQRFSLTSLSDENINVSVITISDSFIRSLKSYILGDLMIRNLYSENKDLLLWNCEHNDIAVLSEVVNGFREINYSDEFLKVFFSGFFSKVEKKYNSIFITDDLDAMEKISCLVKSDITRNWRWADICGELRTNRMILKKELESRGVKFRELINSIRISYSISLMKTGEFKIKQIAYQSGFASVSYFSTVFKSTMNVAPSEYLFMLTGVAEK
molecule,measurement,setting,value
"CCCC(=O)O [SB, sodium butyrate]",Kd,ToxT [1],2600 ± 30 µM
"CCCC(=O)OCC(COC(=O)CCC)OC(=O)CCC [TB, tributyrate]",inhibition of DNA binding,ToxT [2],"tributyrate (TB), was used, and it showed no inhibition on ToxT-DNA binding"
ATTGCTGAGCTAAAGGGGCTGGAAATTCAATGTCATCAGGCTGTTGCCAAGTGACGCGATTCAGTGCGGCTAAATAGAGCGAAGTTAATTGATTCATACTATTATTCAATTTGACGCTTTACCCGATTACCCTAGCTACCTGCAATACCA (double strand) [nonspecific competitor DNA],binding,[3],no binding
